{"source": "patent US20070149446A1", "about": "“Tamandarin analogs and fragments thereof and methods of making and using” (The Trustees of the University of Pennsylvania Center for …, priority 2003, published 2007)", "conditions": "from CC(C)C[C@H](NC(=O)[C@@H](OC(=O)C[C@H](O[Si](C(C)C)(C(C)C)C(C)C)[C@H](N)C(C)C)C(C)C)C(=O)N1CCC[C@H]1C(=O)N(C)[C@@H](Cc1ccccc1)C(=O)O[C@H](C)[C@H](NC(=O)OC(C)(C)C)C(=O)O; amide bond; HATU/DIEA; DMF; 8.9 mM; 25.0 °C; 17.0 h; 3 steps"}
{"molecule": "CC(C)C[C@@H]1NC(=O)[C@H](C(C)C)OC(=O)C[C@H](O[Si](C(C)C)(C(C)C)C(C)C)[C@@H](C(C)C)NC(=O)[C@@H](NC(=O)OC(C)(C)C)[C@@H](C)OC(=O)[C@H](Cc2ccccc2)N(C)C(=O)[C@@H]2CCCN2C1=O", "values": [{"measurement": "ring closure, yield of all isomers", "value": 15, "unit": "%"}]}
